{"source": "patent US20230338587A1", "about": "“METHOD OF TREATING PSMA-EXPRESSING CANCERS” (ADVANCED ACCELERATOR APPLICATIONS INTERNATIONAL SA, priority 2020, published 2023)", "origin": "cited, not measured here", "key": {"[1]": {"test_system": "cynomolgus monkey TGF-β"}, "[2]": {"test_system": "rodent TGF-β"}}}
{"substance": "XOMA 089: fully human monoclonal antibody that specifically binds and neutralizes TGF-beta 1 and 2 ligands", "values": [{"measurement": "cross-reactivity with cynomolgus monkey TGF-β", "setting": "[1]", "value": "cross-reacts"}, {"measurement": "cross-reactivity with rodent TGF-β", "setting": "[2]", "value": "cross-reacts"}]}
